How the values were obtained:
[1] = target: Histone deacetylase 5 (Homo sapiens, UniProt Q9UQL6); assay: Inhibition of human recombinant HDAC5 using ArgHisLysLys(Ac) as substrate by fluorescence based analysis
[2] = target: Histone deacetylase 9 (Homo sapiens, UniProt Q9UKV0); assay: Inhibition of human recombinant HDAC9 using ArgHisLysLys(Ac) as substrate by fluorescence based analysis
[3] = target: T1, Histone deacetylase 7 (Homo sapiens, UniProt Q8WUI4); assay: Inhibition of human recombinant HDAC7 using ArgHisLysLys(Ac) as substrate by fluorescence based analysis
T1 sequence (Q8WUI4 whole entry): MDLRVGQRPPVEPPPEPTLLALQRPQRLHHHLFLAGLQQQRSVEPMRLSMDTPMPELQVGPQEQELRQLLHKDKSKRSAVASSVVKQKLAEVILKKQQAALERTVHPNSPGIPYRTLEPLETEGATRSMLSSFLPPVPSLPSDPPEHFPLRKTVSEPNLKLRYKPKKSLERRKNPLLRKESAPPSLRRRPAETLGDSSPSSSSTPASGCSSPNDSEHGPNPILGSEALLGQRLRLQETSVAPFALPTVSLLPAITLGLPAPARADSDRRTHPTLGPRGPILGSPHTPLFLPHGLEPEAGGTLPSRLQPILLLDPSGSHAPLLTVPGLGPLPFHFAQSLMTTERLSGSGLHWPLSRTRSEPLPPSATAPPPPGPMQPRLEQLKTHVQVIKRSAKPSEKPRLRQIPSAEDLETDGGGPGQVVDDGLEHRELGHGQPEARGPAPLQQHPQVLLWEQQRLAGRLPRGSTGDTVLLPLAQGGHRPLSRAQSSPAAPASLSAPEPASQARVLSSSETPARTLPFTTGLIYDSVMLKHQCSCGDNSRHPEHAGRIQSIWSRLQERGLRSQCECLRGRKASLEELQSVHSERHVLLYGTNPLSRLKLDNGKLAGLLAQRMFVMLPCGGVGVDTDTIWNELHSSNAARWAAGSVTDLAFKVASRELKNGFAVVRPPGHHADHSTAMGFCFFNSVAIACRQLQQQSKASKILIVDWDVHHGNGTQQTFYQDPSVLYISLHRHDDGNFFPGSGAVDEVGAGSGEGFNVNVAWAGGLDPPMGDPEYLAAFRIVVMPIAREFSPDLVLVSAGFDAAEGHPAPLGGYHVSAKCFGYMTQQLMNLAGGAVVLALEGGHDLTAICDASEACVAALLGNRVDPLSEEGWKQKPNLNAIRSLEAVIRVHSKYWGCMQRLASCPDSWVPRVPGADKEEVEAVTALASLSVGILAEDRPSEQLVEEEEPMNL

[4] = target: Histone deacetylase 3 (Homo sapiens, UniProt O15379); assay: Inhibition of human recombinant HDAC3 using ArgHisLysLys(Ac) as substrate by fluorescence based analysis
[5] = target: T2, Polyamine deacetylase HDAC10 (Homo sapiens, UniProt Q969S8); assay: Inhibition of human recombinant HDAC10 using ArgHisLysLys(Ac) as substrate by fluorescence based analysis
T2 sequence (Q969S8 whole entry): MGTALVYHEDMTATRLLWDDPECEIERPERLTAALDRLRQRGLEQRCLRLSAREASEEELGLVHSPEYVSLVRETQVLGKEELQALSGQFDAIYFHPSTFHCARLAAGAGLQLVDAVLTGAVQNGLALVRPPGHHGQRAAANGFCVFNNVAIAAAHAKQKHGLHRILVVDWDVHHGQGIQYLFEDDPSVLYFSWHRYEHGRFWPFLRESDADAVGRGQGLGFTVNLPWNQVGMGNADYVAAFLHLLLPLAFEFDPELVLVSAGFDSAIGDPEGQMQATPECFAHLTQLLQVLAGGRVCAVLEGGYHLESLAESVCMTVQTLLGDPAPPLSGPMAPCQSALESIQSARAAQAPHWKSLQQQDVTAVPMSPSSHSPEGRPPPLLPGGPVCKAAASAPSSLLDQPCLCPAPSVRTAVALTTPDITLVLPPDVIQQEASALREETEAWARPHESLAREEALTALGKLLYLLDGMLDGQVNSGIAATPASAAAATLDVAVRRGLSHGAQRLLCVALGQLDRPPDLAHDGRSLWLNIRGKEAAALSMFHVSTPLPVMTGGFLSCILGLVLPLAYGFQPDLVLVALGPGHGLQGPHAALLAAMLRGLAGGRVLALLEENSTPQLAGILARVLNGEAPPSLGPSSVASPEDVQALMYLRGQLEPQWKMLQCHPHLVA

[6] = target: T3, Histone deacetylase 11 (Homo sapiens, UniProt Q96DB2); assay: Inhibition of human recombinant HDAC11 using ArgHisLysLys(Ac) as substrate by fluorescence based analysis
T3 sequence (Q96DB2 whole entry): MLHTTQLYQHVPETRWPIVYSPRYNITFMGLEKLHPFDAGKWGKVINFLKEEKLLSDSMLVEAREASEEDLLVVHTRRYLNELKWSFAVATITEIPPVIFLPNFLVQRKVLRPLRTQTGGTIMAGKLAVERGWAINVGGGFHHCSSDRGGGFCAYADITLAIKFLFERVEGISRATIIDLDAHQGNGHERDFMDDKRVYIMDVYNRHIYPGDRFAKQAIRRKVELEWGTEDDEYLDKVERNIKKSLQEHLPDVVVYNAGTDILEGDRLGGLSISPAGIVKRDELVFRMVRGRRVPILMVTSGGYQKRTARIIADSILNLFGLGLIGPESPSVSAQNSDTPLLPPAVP

[7] = target: Histone deacetylase 4 (Homo sapiens, UniProt P56524); assay: Inhibition of human recombinant HDAC4 using ArgHisLysLys(Ac) as substrate by fluorescence based analysis
[8] = target: Histone deacetylase 2 (Homo sapiens, UniProt Q92769); assay: Inhibition of human recombinant HDAC2 using ArgHisLysLys(Ac) as substrate by fluorescence based analysis
[9] = target: T4, Histone deacetylase 8 (Homo sapiens, UniProt Q9BY41); assay: Inhibition of human recombinant HDAC8 using ArgHisLysLys(Ac) as substrate by fluorescence based analysis
T4 sequence (Q9BY41 whole entry): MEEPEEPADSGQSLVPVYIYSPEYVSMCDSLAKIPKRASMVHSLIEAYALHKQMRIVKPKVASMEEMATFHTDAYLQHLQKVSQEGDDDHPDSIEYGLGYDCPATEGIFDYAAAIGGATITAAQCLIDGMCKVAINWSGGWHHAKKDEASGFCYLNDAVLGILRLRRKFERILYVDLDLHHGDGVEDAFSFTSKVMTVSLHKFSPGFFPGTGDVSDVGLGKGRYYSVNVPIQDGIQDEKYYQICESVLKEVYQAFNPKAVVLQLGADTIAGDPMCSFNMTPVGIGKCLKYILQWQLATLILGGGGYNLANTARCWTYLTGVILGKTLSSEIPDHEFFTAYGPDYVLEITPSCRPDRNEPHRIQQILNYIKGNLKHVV

Measured: IC50

Histone deacetylase 4, sequence (P56524 whole entry): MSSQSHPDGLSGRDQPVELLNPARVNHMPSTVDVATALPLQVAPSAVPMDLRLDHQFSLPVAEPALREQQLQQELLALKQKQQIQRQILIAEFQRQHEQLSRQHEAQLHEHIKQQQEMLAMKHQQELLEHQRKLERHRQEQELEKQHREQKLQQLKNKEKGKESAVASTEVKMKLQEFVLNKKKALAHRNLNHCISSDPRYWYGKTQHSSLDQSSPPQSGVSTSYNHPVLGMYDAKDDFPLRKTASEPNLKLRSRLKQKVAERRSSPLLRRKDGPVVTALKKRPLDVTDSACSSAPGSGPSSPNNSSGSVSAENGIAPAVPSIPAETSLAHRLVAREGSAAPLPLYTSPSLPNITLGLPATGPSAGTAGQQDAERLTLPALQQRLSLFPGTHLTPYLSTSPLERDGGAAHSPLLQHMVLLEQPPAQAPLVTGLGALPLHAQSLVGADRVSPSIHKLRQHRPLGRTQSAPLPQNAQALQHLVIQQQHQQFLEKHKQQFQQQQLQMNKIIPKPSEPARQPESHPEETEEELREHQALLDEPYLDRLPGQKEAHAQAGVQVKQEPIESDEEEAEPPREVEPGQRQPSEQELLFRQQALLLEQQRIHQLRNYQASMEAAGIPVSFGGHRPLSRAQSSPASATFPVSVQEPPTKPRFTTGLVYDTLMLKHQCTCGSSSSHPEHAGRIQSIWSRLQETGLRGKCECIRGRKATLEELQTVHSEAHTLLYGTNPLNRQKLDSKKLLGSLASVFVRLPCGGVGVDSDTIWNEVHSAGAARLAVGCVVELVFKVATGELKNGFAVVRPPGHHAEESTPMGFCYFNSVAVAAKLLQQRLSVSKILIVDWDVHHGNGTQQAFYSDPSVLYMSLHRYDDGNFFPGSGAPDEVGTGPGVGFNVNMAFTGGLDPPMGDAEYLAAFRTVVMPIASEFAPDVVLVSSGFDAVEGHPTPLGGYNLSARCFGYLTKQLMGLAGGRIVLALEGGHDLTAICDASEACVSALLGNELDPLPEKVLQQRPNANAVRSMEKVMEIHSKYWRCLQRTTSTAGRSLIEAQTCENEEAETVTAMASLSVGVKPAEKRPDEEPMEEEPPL
Histone deacetylase 5, sequence (Q9UQL6 whole entry): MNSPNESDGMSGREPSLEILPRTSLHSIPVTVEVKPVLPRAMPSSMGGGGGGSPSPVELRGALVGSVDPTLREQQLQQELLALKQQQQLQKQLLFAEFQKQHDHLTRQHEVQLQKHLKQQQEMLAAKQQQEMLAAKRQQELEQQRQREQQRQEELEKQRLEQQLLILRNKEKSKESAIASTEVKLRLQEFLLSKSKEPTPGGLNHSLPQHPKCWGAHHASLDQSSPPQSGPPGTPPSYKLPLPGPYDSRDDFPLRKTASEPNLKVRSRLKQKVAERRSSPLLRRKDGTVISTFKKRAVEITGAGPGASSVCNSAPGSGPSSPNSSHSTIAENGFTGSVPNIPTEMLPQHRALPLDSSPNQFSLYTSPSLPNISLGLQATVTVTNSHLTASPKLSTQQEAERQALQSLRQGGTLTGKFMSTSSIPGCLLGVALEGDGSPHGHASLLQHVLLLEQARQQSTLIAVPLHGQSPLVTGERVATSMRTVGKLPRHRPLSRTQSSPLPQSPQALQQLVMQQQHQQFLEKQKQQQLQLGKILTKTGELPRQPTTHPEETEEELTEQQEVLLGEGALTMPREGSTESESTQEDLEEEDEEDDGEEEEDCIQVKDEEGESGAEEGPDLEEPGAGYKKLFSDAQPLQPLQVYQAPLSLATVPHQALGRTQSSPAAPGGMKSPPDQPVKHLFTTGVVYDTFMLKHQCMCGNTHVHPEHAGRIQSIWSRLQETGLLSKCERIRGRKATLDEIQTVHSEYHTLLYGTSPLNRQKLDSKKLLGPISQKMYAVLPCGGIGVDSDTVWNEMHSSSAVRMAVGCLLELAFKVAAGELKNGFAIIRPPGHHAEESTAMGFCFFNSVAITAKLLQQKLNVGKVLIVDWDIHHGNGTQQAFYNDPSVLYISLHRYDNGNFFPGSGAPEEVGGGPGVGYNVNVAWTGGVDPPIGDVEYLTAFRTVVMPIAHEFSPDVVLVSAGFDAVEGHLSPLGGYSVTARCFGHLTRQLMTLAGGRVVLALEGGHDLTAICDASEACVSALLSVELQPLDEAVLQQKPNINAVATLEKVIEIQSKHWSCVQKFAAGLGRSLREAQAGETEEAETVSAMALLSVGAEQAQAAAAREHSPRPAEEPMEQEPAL
Histone deacetylase 3, sequence (O15379 whole entry): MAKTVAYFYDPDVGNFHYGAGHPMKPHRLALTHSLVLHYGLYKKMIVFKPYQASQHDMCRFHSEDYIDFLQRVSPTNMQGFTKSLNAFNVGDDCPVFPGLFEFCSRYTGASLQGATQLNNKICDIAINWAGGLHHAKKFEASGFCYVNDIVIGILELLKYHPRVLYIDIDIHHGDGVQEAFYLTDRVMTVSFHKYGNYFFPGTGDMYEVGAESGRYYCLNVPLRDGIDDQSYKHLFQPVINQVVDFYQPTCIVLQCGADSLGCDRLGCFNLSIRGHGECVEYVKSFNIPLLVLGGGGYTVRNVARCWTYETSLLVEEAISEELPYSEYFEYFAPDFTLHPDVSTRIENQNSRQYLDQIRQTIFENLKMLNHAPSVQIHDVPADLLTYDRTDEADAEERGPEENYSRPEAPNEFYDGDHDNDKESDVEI
Histone deacetylase 2, sequence (Q92769 whole entry): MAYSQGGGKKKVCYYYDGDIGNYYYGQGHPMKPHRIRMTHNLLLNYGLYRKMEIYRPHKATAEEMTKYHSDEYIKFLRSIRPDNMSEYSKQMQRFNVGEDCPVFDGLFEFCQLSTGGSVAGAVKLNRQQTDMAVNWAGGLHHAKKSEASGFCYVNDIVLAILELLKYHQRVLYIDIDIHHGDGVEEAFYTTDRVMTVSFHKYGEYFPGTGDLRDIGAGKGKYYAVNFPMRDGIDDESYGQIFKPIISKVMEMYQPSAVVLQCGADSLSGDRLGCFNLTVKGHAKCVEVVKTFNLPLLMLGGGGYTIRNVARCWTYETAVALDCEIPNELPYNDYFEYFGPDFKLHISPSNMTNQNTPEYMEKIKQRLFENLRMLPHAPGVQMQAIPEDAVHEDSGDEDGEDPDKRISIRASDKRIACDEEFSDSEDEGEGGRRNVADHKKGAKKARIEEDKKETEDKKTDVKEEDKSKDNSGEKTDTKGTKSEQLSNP
Histone deacetylase 9, sequence (Q9UKV0 whole entry): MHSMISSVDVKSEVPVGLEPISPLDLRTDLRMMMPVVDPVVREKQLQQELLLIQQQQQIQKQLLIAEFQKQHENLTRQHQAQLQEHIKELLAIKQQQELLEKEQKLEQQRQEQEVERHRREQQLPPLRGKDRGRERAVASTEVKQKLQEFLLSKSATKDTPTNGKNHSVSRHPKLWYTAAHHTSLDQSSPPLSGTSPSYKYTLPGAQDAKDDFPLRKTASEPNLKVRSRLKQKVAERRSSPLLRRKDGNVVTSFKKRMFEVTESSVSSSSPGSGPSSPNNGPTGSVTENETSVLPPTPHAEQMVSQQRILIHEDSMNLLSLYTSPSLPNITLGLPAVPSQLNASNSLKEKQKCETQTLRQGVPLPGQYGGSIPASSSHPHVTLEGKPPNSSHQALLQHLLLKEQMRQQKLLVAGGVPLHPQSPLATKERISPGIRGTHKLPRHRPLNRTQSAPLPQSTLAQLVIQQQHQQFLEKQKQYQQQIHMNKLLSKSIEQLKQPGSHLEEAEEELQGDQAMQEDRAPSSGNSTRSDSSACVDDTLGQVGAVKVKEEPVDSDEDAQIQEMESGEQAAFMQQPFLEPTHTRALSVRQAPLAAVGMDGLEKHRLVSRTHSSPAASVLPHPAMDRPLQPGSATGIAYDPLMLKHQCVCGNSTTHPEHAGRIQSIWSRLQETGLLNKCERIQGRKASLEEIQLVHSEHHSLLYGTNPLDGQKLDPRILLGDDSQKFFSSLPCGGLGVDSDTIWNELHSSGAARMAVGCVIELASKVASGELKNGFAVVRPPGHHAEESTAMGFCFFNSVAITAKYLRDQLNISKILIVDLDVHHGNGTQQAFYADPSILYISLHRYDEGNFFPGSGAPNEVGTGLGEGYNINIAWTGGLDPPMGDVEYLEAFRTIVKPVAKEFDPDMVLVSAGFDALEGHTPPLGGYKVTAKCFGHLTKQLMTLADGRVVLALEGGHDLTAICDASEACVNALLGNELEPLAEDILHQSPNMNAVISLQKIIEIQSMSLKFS

O=C(CCCCCC1CNC1=O)Nc1ccccc1 (stereo unspecified)
> 1000 µM: [1] | [2] | [3] | [4] | [5] | [6] | [7] | [8] | [9]

O=C(CCCCC[C@@H]1CN(O)C1=O)Nc1ccccc1
> 1000 µM: [1] | [2] | [3] | [4] | [5] | [6] | [7] | [8] | [9]

Nc1ccccc1N1CC(CCCCCC(=O)Nc2ccccc2)C1=O (stereo unspecified)
> 1000 µM: [1] | [2] | [3] | [4] | [5] | [6] | [7] | [8] | [9]

O=C(CCCCC[C@H]1CN(O)C1=O)Nc1ccccc1
> 1000 µM: [1] | [2] | [3] | [4] | [5] | [6] | [7] | [8] | [9]

Source: ChEMBL document CHEMBL5352506, “The Zinc-Binding Group Effect: Lessons from Non-Hydroxamic Acid Vorinostat Analogs” (J Med Chem, 2023)
